The source made the active and inactive calls. The rule behind the calls is not given here.

A short description of data set [1]: Cytotoxicity against Homo sapiens (human) PMN cells assessed as cell viability at 0.0075 ug/ml by trypan blue dye exclusion test (reference value: 83.94 +/-5.05%). The class given is cell-based. Particulars: read-out: Activity.
Data set [2] is described as follows: Immunomodulatory activity in Homo sapiens (human) PMN cells assessed as induction of phagocytosis using Candida albicans as an infectious organism at 1 uM after 1 hr by Giemsa staining based microscopic analysis (reference value: 27.33 +/-2.52%). The data set is classed as functional.
Data set [3] is described as follows: Immunomodulatory activity in Homo sapiens (human) PMN cells assessed as induction of phagocytosis using Candida albicans as an infectious organism at 0.005 ug/ml after 1 hr by Giemsa staining based microscopic analysis (reference value: 27.33 +/-2.52%). The data set is classed as functional.
Data set [4] relates to PMN. The experiment in a line: Immunomodulatory activity in Homo sapiens (human) PMN cells assessed as increase in phagocytic index using Candida albicans as an infectious organism at 0.005 ug/ml after 1 hr by Giemsa staining based microscopic analysis. The class given is functional, cell-based.
Data set [5] can be described thus: Immunomodulatory activity in Homo sapiens (human) PMN cells assessed as induction of phagocytosis using Candida albicans as an infectious organism at 0.0075 ug/ml after 1 hr by Giemsa staining based microscopic analysis (reference value: 27.33 +/-2.52%). The class given is functional.
In data set [6] the test system is PMN. The experiment in a line: Immunomodulatory activity in Homo sapiens (human) PMN cells assessed as increase in reactive oxygen species formation at 0.001 ug/ml at 40 min after luminal addition by chemiluminescence assay. The data set is classed as functional, cell-based.
A short description of data set [7]: Immunomodulatory activity in Homo sapiens (human) PMN cells assessed as induction of phagocytosis using Candida albicans as an infectious organism at 0.001 ug/ml after 1 hr by Giemsa staining based microscopic analysis (reference value: 27.33 +/-2.52%). The class given is functional.
Data set [8] has as its system PMN. The experiment in a line: Immunomodulatory activity in Homo sapiens (human) PMN cells assessed as increase in NO release at 0.001 to 0.0075 ug/ml after 1 hr by ELISA plate reader analysis. The data set is classed as functional, cell-based.
Data set [9] deals with PMN. Put plainly: Immunomodulatory activity in Homo sapiens (human) PMN cells assessed as increase in reactive oxygen species formation at 0.001 ug/ml at 0 min after luminal addition by chemiluminescence assay. The data set is classed as functional, cell-based.
The nature of data set [10]: Cytotoxicity against Homo sapiens (human) PMN cells assessed as cell viability at 0.005 ug/ml by trypan blue dye exclusion test (reference value: 83.94 +/-5.05%). The class given is cell-based. The settings on record: read-out: Activity.
The nature of data set [11]: Cytotoxicity against Homo sapiens (human) PMN cells assessed as cell viability at 0.001 ug/ml by trypan blue dye exclusion test (reference value: 83.94 +/-5.05%). The data set is classed as cell-based. The settings on record: read-out: Activity.
For data set [12], the system named is PMN. Put plainly: Immunomodulatory activity in Homo sapiens (human) PMN cells assessed as increase in superoxide species generation at 0.001 to 0.0075 ug/ml after 2 hr by NBT assay. The data set is classed as functional, cell-based.
Data set [13] is described as follows: Cytotoxicity against Homo sapiens (human) PMN cells assessed as cell viability at 0.01 ug/ml by trypan blue dye exclusion test (reference value: 83.94 +/-5.05%). The class given is cell-based. The settings on record: read-out: Activity.
Data set [14] in a line: Cytotoxicity against Homo sapiens (human) PMN cells assessed as cell viability at 0.1 ug/ml by trypan blue dye exclusion test (reference value: 83.94 +/-5.05%). Particulars: read-out: Activity. The data set is classed as cell-based.
Data set [15] deals with PMN. The experiment in a line: Immunomodulatory activity in Homo sapiens (human) PMN cells assessed as increase in phagocytic index using Candida albicans as an infectious organism after 1 hr by Giemsa staining based microscopic analysis. The class given is functional, cell-based.
Data set [16] in a line: Cytotoxicity against Homo sapiens (human) PMN cells assessed as cell viability at 0.5 ug/ml by trypan blue dye exclusion test (reference value: 83.94 +/-5.05%). The data set is classed as cell-based. Particulars: read-out: Activity.
Data set [17] deals with PMN. Put plainly: Immunomodulatory activity in Homo sapiens (human) PMN cells assessed as increase in reactive oxygen species formation at 0.001 to 0.0075 ug/ml at 40 min after luminal addition by chemiluminescence assay. The data set is classed as functional, cell-based.
Data set [18] can be described thus: Cytotoxicity against Homo sapiens (human) PMN cells assessed as cell viability at 1 ug/ml by trypan blue dye exclusion test (reference value: 83.94 +/-5.05%). The class given is cell-based. Particulars: read-out: Activity.
The subject of data set [19] is PMN. The experiment in a line: Immunomodulatory activity in Homo sapiens (human) PMN cells assessed as increase in reactive oxygen species formation at 0 min after luminal addition by chemiluminescence assay. The data set is classed as functional, cell-based.
The subject of data set [20] is PMN. The experiment in a line: Immunomodulatory activity in Homo sapiens (human) PMN cells assessed as increase in NO release at 1 uM after 1 hr by ELISA plate reader analysis. The class given is functional, cell-based.
For data set [21], the system named is PMN. Put plainly: Immunomodulatory activity in Homo sapiens (human) PMN cells assessed as increase in superoxide species generation at 1 uM after 2 hr by NBT assay. The class given is functional, cell-based.
Data set [22] concerns PMN. Put plainly: Immunomodulatory activity in Homo sapiens (human) PMN cells assessed as increase in reactive oxygen species formation at 1 uM at 0 min after luminal addition by chemiluminescence assay. The class given is functional, cell-based.
Data set [23] has as its system PMN. Put plainly: Immunomodulatory activity in Homo sapiens (human) PMN cells assessed as increase in reactive oxygen species formation at 1 uM at 40 min after luminal addition by chemiluminescence assay. The data set is classed as functional, cell-based.

For `C[C@H]1CC[C@@]2(OC1)O[C@H]1C[C@H]3[C@@H]4CC[C@@H]5C[C@@H](O[C@@H]6O[C@H](CO[C@@H]7O[C@@H](C)[C@H](O)[C@@H](O)[C@H]7O)[C@@H](O[C@@H]7OC[C@@H](O)[C@H](O)[C@H]7O)[C@H](O)[C@H]6O[C@@H]6O[C@H](CO)[C@@H](O)[C@H](O)[C@H]6O)CC[C@]5(C)[C@H]4CC[C@]3(C)[C@H]1[C@@H]2C` [SHATAVAROSIDE B], in data set [1], the viability at 0.0075 ug/ml turned out to be 91%. For the same compound, the Activity in data set [2] was 35%; in data set [3], 28.17%; in data set [5], 26.33%; in [7], 36.83%. For the same compound, the result in [4], in data set [6], in data set [8], in [9] and in [12] was Active. Moreover, in [10], the viability at 0.005 ug/ml worked out at 92.8%. In addition, the viability at 0.001 ug/ml in data set [11] amounted to 94.2%.
For the compound `C[C@H]1CC[C@@]2(OC1)O[C@H]1C[C@H]3[C@@H]4CC[C@@H]5C[C@@H](O[C@@H]6O[C@H](CO[C@@H]7O[C@@H](C)[C@H](O)[C@@H](O)[C@H]7O)[C@@H](O)[C@H](O)[C@H]6O[C@@H]6OC[C@H](O)[C@H](O)[C@H]6O)CC[C@]5(C)[C@H]4CC[C@]3(C)[C@H]1[C@@H]2C` [SHATAVAROSIDE A], the viability at 0.0075 ug/ml in data set [1] amounted to 100%. Besides, the Activity was 35% in [2]; 29.33% in [3]; “Dose-dependent effect” in [15]; 23.5% in data set [5]; 32% in data set [7]; “Dose-dependent effect” in [19]. The viability at 0.01 ug/ml in [13] stood at 72.3%. The viability at 0.1 ug/ml in data set [14] amounted to 71.7%. Also, in data set [16], the viability at 0.5 ug/ml was found to be 71.2%. The result in data set [17], in [8] and in data set [12] was Active. Besides, the viability at 1 ug/ml in data set [18] is 76.2%. In addition, the viability at 0.005 ug/ml in data set [10] came to 100%. Moreover, the viability at 0.001 ug/ml in data set [11] was found to be 100%.
As to `CCCCCCCCCCCCCC(=O)O[C@@H]1[C@@H](C)[C@@]2(O)[C@@H](C=C(CO)C[C@]3(O)C(=O)C(C)=C[C@@H]23)[C@@H]2C(C)(C)[C@]12OC(C)=O`, the outcome in data set [20], in [21], in data set [22] and in data set [23] was Active.
